Patent US9730446B2, “Herbicidal compositions comprising 4-amino-3-chloro-6-(4-chloro-2-fluoro-3-methoxyphenyl)pyridine-2-carboxylic acid or a derivative thereof and propyzamide” (Dow AgroSciences LLC, priority 2013, dated 2017)

Tests used:
Type in all cases: in vivo
[1] = system: GERSS Geranium sp. (cranesbill); assay: Field trial, visual weed control in winter oilseed rape
Method: (§1) Multiple small plot research experiments were conducted to evaluate efficacy and tolerance of winter oilseed rape to compositions described herein. Typical small plots (2-4×4-10 meters (m)) were used in growers' fields under natural conditions with normal commercial cultural practices. Backpack sprayers were used to apply all treatments based on unit area. The methyl ester of formula (I) and propyzamide were tested alone and in combination at varying rates. […] Crop stage was at Growth Stage 39-50. Visual crop injury ratings were collected 32, 49, and 74 days after treatment. […] The reported values are means. […] The following abbreviations are used in Tables 2-4: • GERSS Geranium sp. (cranesbill) • POAAN Poa annua (annual bluegrass) • VERSS Veronica sp.

[2] = system: VERSS Veronica sp. (speedwell); assay: as above
Method: as §1

[3] = system: winter oilseed rape; assay: Field trial, visual crop injury ratings; conditions: varying rates, crop Growth Stage 39-50, 32, 49, and 74 days after treatment, in each case
Method: Multiple small plot research experiments were conducted to evaluate efficacy and tolerance of winter oilseed rape to compositions described herein. Typical small plots (2-4×4-10 meters (m)) were used in growers' fields under natural conditions with normal commercial cultural practices. Backpack sprayers were used to apply all treatments based on unit area. The methyl ester of formula (I) and propyzamide were tested alone and in combination at varying rates. Application water volume was 150 L/ha. Crop stage was at Growth Stage 39-50. Visual crop injury ratings were collected 32, 49, and 74 days after treatment. […] The reported values are means.

For `COC(=O)c1nc(-c2ccc(Cl)c(OC)c2F)cc(N)c1Cl` [Cmpd I, methyl ester of 4-amino-3-chloro-6-(4-chloro-2-fluoro-3-methoxyphenyl)pyridine-2-carboxylic acid], the “% control rated visually, ob (observed)” value ([1]; Cmpd I 1.25 g ae/ha, 32 DAAA) was 42.5%, the “% control rated visually, ob (observed)” value ([1]; Cmpd I 1.25 g ae/ha, 58 DAAA) was 62.5% and the “% control rated visually, ob (observed)” value ([1]; Cmpd I 1.25 g ae/ha, 80 DAAA) was 53.8%. The “% control rated visually, ob (observed)” value ([1]; Cmpd I 2.5 g ae/ha, 32 DAAA) was 42.5%, the “% control rated visually, ob (observed)” value ([1]; Cmpd I 2.5 g ae/ha, 58 DAAA) was 57.5% and the “% control rated visually, ob (observed)” value ([1]; Cmpd I 2.5 g ae/ha, 80 DAAA) was 67.5%. The “% control rated visually, ob (observed)” value ([1]; Cmpd I 5 g ae/ha, 32 DAAA) was 89.3%, the “% control rated visually, ob (observed)” value ([1]; Cmpd I 5 g ae/ha, 58 DAAA) was 77.5% and the “% control rated visually, ob (observed)” value ([1]; Cmpd I 5 g ae/ha, 80 DAAA) was 69.5%. The “% control rated visually, ob (observed)” value ([1]; Cmpd I 7.5 g ae/ha, 32 DAAA) was 91.3%, the “% control rated visually, ob (observed)” value ([1]; Cmpd I 7.5 g ae/ha, 58 DAAA) was 91.3% and the “% control rated visually, ob (observed)” value ([1]; Cmpd I 7.5 g ae/ha, 80 DAAA) was 99.8%. For the same molecule, the “% control rated visually, ob (observed)” value ([2]; Cmpd I 1.25 g ae/ha, 32 DAAA) was 10.0%, the “% control rated visually, ob (observed)” value ([2]; Cmpd I 1.25 g ae/ha, 80 DAAA) was 80.0% and the “% control rated visually, ob (observed)” value ([2]; Cmpd I 2.5 g ae/ha, 32 DAAA) was 26.3%. For the same molecule, the “% control rated visually, ob (observed)” value ([2]; Cmpd I 2.5 g ae/ha, 80 DAAA) was 97.5%, the “% control rated visually, ob (observed)” value ([2]; Cmpd I 5 g ae/ha, 32 DAAA) was 45.0% and the “% control rated visually, ob (observed)” value ([2]; Cmpd I 5 g ae/ha, 80 DAAA) was 100.0%. For the same molecule, the “% control rated visually, ob (observed)” value ([2]; Cmpd I 7.5 g ae/ha, 32 DAAA) was 81.3%, the “% control rated visually, ob (observed)” value ([2]; Cmpd I 7.5 g ae/ha, 80 DAAA) was 100.0% and the “Visual crop injury rating” value [3] was 0 % injury.
